From patent publication US20060204981A1, “Compositions for modulation of PARP and methods for screening for same” (priority 2005, published 2006)
Read-outs that look alike come from different tables or passages of the source.

Tests used:
PARP [1] = assay: Immunofluorescence analysis with anti-poly(ADP-ribose) antibody, HeLa cells; format: cell-based
Protocol: HeLa and DLD1 cells were grown on coverslips for PARP activity experiments. Cells treated with 4 uM β-lapachone at different time points and fixed with methanol acetone (70/30, v/v) for 10 min at −20° C. Coverslips were air dried and rehydrated in PBS at room temperature for 10 min. Samples were than incubated in blocking buffer (PBS, 5% FBS) for 10 minutes at room temperature in a humid chamber. Cells were incubated overnight at 4° C. with monoclonal anti-poly(ADP-ribose) antibody (I OH, 1:100 dilution). After washing, the cells were incubated for 1 hr at room temperature with a 1:500 dilution of FITC conjugated anti-mouse antibody. For the PARP inhibition study, cells pre-teated for 1 h with the PARP inhibitor 3-aminobenzamide (3-AB, 5 mM), and then co-treated with inhibitor and β-lapachone for a further 10 minutes followed by immunofluorescence staining. Immunofluorescence was evaluated using an immunofluorescence microscope equipped with a CCD camera.
HeLa cells were grown on coverslips for 24 h, then treated with 4 μM β-lapachone at different time points and fixed with methanol acetone (70/30, v/v) for 10 min. Samples were incubated in blocking buffer (5% FBS in PBS) for 10 minutes at room temperature in a humid chamber. […] Immunofluorescence was evaluated using an immunofluorescence microscope equipped with a CCD camera. […]

HeLa cells [2] = assay: NAD depletion assay; format: cell-based
Protocol: HeLa cells were plated at 6×10^5 cells per well (35 mm, 6-well dishes). Eighteen hours after plating, cells were treated with β-lapachone (0, 2, 4 or 8 μM) in growth media (DMEM; 10% FBS) for the time periods indicated (15, 30 and 60 minutes). Following drug treatment cells were washed 2× with PBS. Cells were subsequently lysed in 200 μL NAD lysis buffer (61 mM glycyl-glycine, pH 7.4, 0.1% Triton-X-100). Cellular lysates were clarified by centrifugation at 16,000 g for 10 minutes. Aliquots of clarified lysates were transferred to 96-well plates (25 μL samples in triplicate) for to determine NAD^+ concentrations.
Determination of lysate NAD levels was performed using a modification of the NAD recycling assay described by Ying et al. (PNAS, 98(21):12227-32 (2001)). Briefly, the NAD reaction mixture consisted of 0.1 mM 3-[4,5-dimethylthiazol-2-yl]-2,5-diphenyl-tetrazolium bromide (MTT), 0.9 mM phenazine methosulfate, 13 units/ml alcohol dehydrogenase (from yeast extract, Sigma), 100 mM nicotinamide, and 5.7% ethanol in 61 mM Gly-Gly buffer (pH 7.4). To each aliquot of cellular lysate, 200 μL of reaction mixture was added. Absorbance readings (560 nm) were taken every minute for five minutes. Results were calibrated with NAD^+ standards and were subsequently normalized to protein concentration as determined using the Bio-Rad protein Assay.

DLD1 cells = assay: MTT cell death assay, DLD1 cells; format: cell-based, human
Protocol: (§1) Cell death was determined by the 3-(4,5-dimethylthiazol-2-yl)-2,5-diphenyl tetrazolium bromide (MTT) assay or by trypan blue exclusion, as indicated. Briefly, HeLa and DLD1 cells were plated in a 96-well plate at 10,000 cells per well, cultured for 24 h in complete growth medium, then treated with various concentrations of β-lapachone for 4 h MTT was added to a final concentration of 0.5 mg/ml, and incubated for 1 hr, followed by assessment of cell viability using a microplate reader at 570 nm. For the trypan blue exclusion assay, HeLa and DLD1 cells were plated in 6-well plate and treated in the same way. They were harvested, and trypan blue dye solution was added to the cell suspension. Total cell counts and viable cell numbers were determined with a hemacytometer. For the PARP inhibition study, cells were […] for 1 h with the PARP inhibitor 3-aminobenzamide (3-AB, 5 mM), and then co-treated with inhibitor and β-lapachone for a further 4 h, followed by MTT assay or trypan blue staining. […] HeLa and DLD1 cells were plated in 96-well plates at 10,000 cells per well, cultured for 24 h in complete growth medium, pretreated with PARP inhibitor 3-AB […] or equal volume of DMSO for 1 h, and then exposed to β-lapachone at various concentrations for a further 4 h, followed by MTT assay.

PARP [3] = assay: PARP activity assay in cell lysate; format: biochemical, human; conditions: various β-lapachone concentrations vs 0 μM control, dose-dependent (FIG. 9)
Protocol: A cell extract was generated by scraping a 15 cm (˜80% confluent) dish of MCF7 cells into 1.5 ml of PARP buffer (50 mM Tris pH 8.0, 25 mM MgCl2) containing protease inhibitors. The cell suspension was sonicated at 30% amplitude with 3×10 second bursts on ice. The cell lysate was subsequently clarified by centrifugation at 16,000 g for 10 minutes at 4° C. Any remaining insoluble material was removed by passing the clarified lysate through a 5 ml syringe containing a cotton pad-filter. The protein concentration of extracts was typically between […]. PARP in vitro activity was determined using a modification of the PARP in vitro assay from TREVIGEN™. Reactions were comprised of the following: ˜60 μg of cellular protein, 100 μM NAD, 10 μg of histone H1, β-lapachone (at various concentrations) or DMSO control, 25 mM MgCl2, 50 mM Tris-Cl pH 8.0. Reactions were incubated for 10 minutes at room temperature and terminated by the addition of 900 μL of cold 25% trichloroacetic acid. Terminated reactions were incubated on ice for 10 minutes. TCA-precipitated proteins were isolated by passing reaction over glass-fiber filters under vacuum. Filters were subsequently washed three times with 5 ml of 5% TCA followed by 2 washes with cold ethanol. […] The amount of ^32P labeled NAD incorporated into polyribosylated proteins was then determined by liquid scintillation measurement.

HeLa cells [4] = assay: MTT cell death assay, HeLa cells; format: cell-based; conditions: for cell survival percentage: MTT (FIG. 1)
Protocol: as §1

MCF7 cells = assay: NAD+ supplementation experiment, MTT assay; format: cell-based; conditions: Homo sapiens, 4 h, MTT (FIG. 8), read-out: IC50 (cytotoxicity)
Protocol: For NAD^+ supplementation experiment, MCF7 cells were plated in 96-well plates at a density of 10,000 cells per well. Sixteen to eighteen hours later cells were pre-treated with […] 3-aminobenzamide, 10 mM NAD+, or vehicle control (all treatments in formulated in growth media: DMEM with 10% fetal bovine serum) for 1 hour at 37° C. Following this incubation, cells (under each pre-incubation treatment) were treated with β-lapachone at indicated concentrations for 4 hours at 37° C. An MTT assay was then performed as described above.

[5] = system: E2F1 tet-inducible DLD1 cells; assay: Apoptosis in E2F1 tet-inducible DLD1 cells; format: cell-based
Source text: To investigate E2F1 induced apoptosis, an inducible system was established. Human colon cancer cell lines harboring a mutated p53 gene were used to generate E2F1-inducible cell lines (Rodrigues, et al., PNAS, 87:7555-9 (1990)). […] Under the tetracycline induction conditions, a significant percentage of DLD1 cells undergoing apoptosis were detected at a given time point (10% at day 3; 15% at day 4) as determined by propidium iodide (PI) staining and flow cytometry (FIG. 10B). The apoptosis was further confirmed by assaying morphological changes following expression of E2F1 (FIG. 10C). Similar data was obtained in E2F1-inducible SW480 human colon cancer cells. In addition to proapoptotic function, E2F1 is a necessary transcription factor for cell proliferation (Johnson, D. et al., Nature 365:349-52 (1993); Wu, L. et al. Nature 414:457-62 (2001)). Under these experimental conditions, no significant changes in overall cell cycle distribution were observed.
To further investigate the mechanism of E2F1-induced apoptosis, the role of caspase activation was investigated. Two forms of caspase-3, procaspase and cleaved caspase were detected by western blot analysis. […] Further, it was determined if E2F1-induced, p53 independent apoptosis was affected by inhibiting caspase function with a pancaspase inhibitor. Apoptosis induced by camptothecin, a known caspase-3 activator, was used as a positive control.
Activation of PARP-1 has been implicated in caspase independent apoptosis. It was investigated whether E2F1 induced cell death involved PARP-1 activation. Poly ADP ribosylation (PAR), the functional indicator of PARP-1 activation, was detected by immunoblot with a specific anti-PAR antibody. […] Immunocytochemical staining of PAR further conformed the activity of PARP-1 (FIG. 11B). The nuclear PAR stain was increased after expression of E2F1 for 24 h and reached a plateau at 48 h. To determine if poly ADP ribosylation plays a causal role in E2F1 induced apoptosis, 3′-aminobenzamide (3′-AB), a universal inhibitor of PARP activity, was used.
Protein poly ADP ribosylation is catalysed by members of the poly (ADP-ribose) polymerase family that consists of 18 genes (Amé, J. C., et al., Bioessays 26:882-93 (2004)). The PARP-1 protein is the dominant member in most cells, which contributes the majority of overall poly ADP ribosylation induced by DNA damage (Davidovic, L. et al., Exp Cell Res 268:7-13 (2001)). To distinguish which member of the PARP family was involved in E2F1-induced apoptosis, siRNA technology was utilized to reduce PARP-1 protein levels. A chemically synthesized PARP-1 siRNA pool was electroporated into the DLD1-E2F1 inducible cell line. The PARP-1 protein began to decrease at day 2 and reached the lowest levels at day 4 and gradually recovered from day 6 as shown by western blot (FIG. 12A) and immunocytochemical staining. […] The E2F1-induced apoptosis was compromised following PARP-1 knockdown (P<0.001) (FIG. 12C).

Compound: CC1(C)CCC2=C(O1)c1ccccc1C(=O)C2=O [β-lapachone, 3,4-dihydro-2,2-dimethyl-2H-naphtho [1,2-b]pyran-5,6-dione]
- activation of PARP (anti-poly(ADP-ribose) fluorescence) (PARP [1]; 4 μM β-lapachone, 5 minutes to 2 hours (FIG. 4)): increases fluorescence
- cellular NAD+ levels (HeLa cells [2]; 8 μM β-lapachone, within 15 minutes (FIG. 7)): ~20 % of control
- cellular NAD+ levels (HeLa cells [2]; β-lapachone concentrations in excess of the IC50, by 30 minutes (FIG. 7)): less than 50 % of control
- cell survival percentage (DLD1 cells; pretreated 1 h with PARP inhibitor 3-AB, then β-lapachone for 4 h, MTT (FIG. 1)): approximately 75%
- PARP activity in cellular lysate (PARP [3]): induces enhancement of PARP activity above the basal level
- cell survival percentage (HeLa cells [4]; HeLa cells, pretreated 1 h with PARP inhibitor 3-AB, then β-lapachone for 4 h): ~60%
- cell survival percentage (HeLa cells [4]; HeLa cells, β-lapachone for 4 h without 3-AB): approximately 5%
- IC50 (HeLa cells [4]; Homo sapiens, HeLa, cytotoxicity IC50 quoted in the NAD+ depletion example, cell line not given): ~2800 nM
- IC50 (MCF7 cells; control (no NAD+ supplementation)): ~2700 nM
- IC50 (MCF7 cells; exogenous NAD+ supplementation (10 mM, 1 h pre-treatment)): ~6600 nM

Compound: NC(=O)c1cccc(N)c1 [3-aminobenzamide]
- effect on β-lapachone induced activation of PARP (PARP [1]; 5 mM 3-AB 1 h, then 4 μM β-lapachone 10 minutes (FIG. 5)): blocked
- effect on β-lapachone-mediated NAD+ depletion (HeLa cells [2]; data not shown): inhibited
- effect on β-lapachone-induced cell death (DLD1 cells; 3-AB pretreatment 1 h, MTT): blocked
- effect on apoptosis of addition alone ([5]; 3′-AB alone vs control group): no effect on apoptosis
- inhibition at 5000 µM ([5]; Homo sapiens, DLD-1, read-out: inhibition of E2F1 induced apoptosis): > 70%
- effect on β-lapachone-induced cell death (HeLa cells [4]; HeLa cells, 3-AB pretreatment 1 h, MTT): blocked

Compound: Z-VAD
- cytotoxic effects of addition alone ([5]; Z-VAD alone): no cytotoxic effects
- effect on camptothecin-induced apoptosis ([5]; Z-VAD at 50 μM (FIG. 10F)): blocked
- effect on E2F1-induced apoptosis ([5]; Z-VAD at 50 μM, tetracycline induction (FIG. 10F)): failed to block
